Values after ≈ are worked out from the molar mass of the structure shown. Active and inactive are the calls of the source. The rule behind the calls is not given here.
Assays:
[1] = tested on: Mycobacterium tuberculosis; test: Antimycobacterial activity against Mycobacterium tuberculosis H37Rv assessed as reduction in microbial growth incubated for 7 days by alamar blue assay; format: functional; conditions: 168 h, time 7 day
[2] = Cytotoxicity against mouse RAW264.7 cells assessed as reduction in cell viability at 25 ug/ml incubated for 48 hrs by MTT assay; format: cell-based; conditions: at 25 µg/mL, read-out: INH
Staphylococcus aureus [3] = test: Antibacterial activity against Staphylococcus aureus assessed as diameter of inhibition zone at 1 mg/ml incubated for 24 hrs by agar well diffusion assay; format: functional; conditions: for zone of inhibition at 1000 µg/mL: read-out: DIZ
Bacillus cereus = test: Antibacterial activity against Bacillus cereus assessed as diameter of inhibition zone at 1 mg/ml incubated for 24 hrs by agar well diffusion assay; format: functional; conditions: for zone of inhibition at 1000 µg/mL: read-out: DIZ
Bacillus subtilis = test: Antibacterial activity against Bacillus subtilis assessed as diameter of inhibition zone at 1 mg/ml incubated for 24 hrs by agar well diffusion assay; format: functional; conditions: for zone of inhibition at 1000 µg/mL: read-out: DIZ
Klebsiella aerogenes [4] = test: Antibacterial activity against Enterobacter aerogenes assessed as diameter of inhibition zone at 1 mg/ml incubated for 24 hrs by agar well diffusion assay; format: functional; conditions: for zone of inhibition at 1000 µg/mL: read-out: DIZ
Escherichia coli = test: Antibacterial activity against Escherichia coli assessed as diameter of inhibition zone at 1 mg/ml incubated for 24 hrs by agar well diffusion assay; format: functional
Salmonella typhi [5] = test: Antibacterial activity against Salmonella typhi assessed as diameter of inhibition zone at 1 mg/ml incubated for 24 hrs by agar well diffusion assay; format: functional, Salmonella enterica subsp. enterica serovar Typhi; conditions: for zone of inhibition at 1000 µg/mL: Salmonella enterica, read-out: DIZ; for diameter of the inhibition zone (DIZ): Salmonella enterica subsp. enterica serovar Typhi
Pseudomonas aeruginosa = test: Antibacterial activity against Pseudomonas aeruginosa assessed as diameter of inhibition zone at 1 mg/ml incubated for 24 hrs by agar well diffusion assay; format: functional; conditions: for zone of inhibition at 1000 µg/mL: read-out: DIZ
Shigella boydii = test: Antibacterial activity against Shigella boydii assessed as diameter of inhibition zone at 1 mg/ml incubated for 24 hrs by agar well diffusion assay; format: functional
[6] = tested on: Salmonella enterica subsp. enterica serovar Abony; test: Antibacterial activity against Salmonella enterica subsp. enterica serovar Abony assessed as diameter of inhibition zone at 1 mg/ml incubated for 24 hrs by agar well diffusion assay; format: functional
Aspergillus niger = test: Antifungal activity against Aspergillus niger assessed as diameter of inhibition zone at 1 mg/ml incubated for 24 hrs by agar well diffusion assay; format: functional; conditions: for zone of inhibition at 1000 µg/mL: read-out: DIZ
Saccharomyces cerevisiae = test: Antifungal activity against Saccharomyces cerevisiae assessed as diameter of inhibition zone at 1 mg/ml incubated for 24 hrs by agar well diffusion assay; format: functional; conditions: for zone of inhibition at 1000 µg/mL: read-out: DIZ
Salmonella typhi [7] = test: Antibacterial activity against Salmonella typhi ATCC 9207 by CLSI method; format: functional, Salmonella enterica subsp. enterica serovar Typhi; conditions: Salmonella enterica
Staphylococcus aureus [8] = test: Antibacterial activity against Staphylococcus aureus ATCC 6538 by CLSI method; format: functional
Klebsiella aerogenes [9] = test: Antibacterial activity against Enterobacter aerogenes ATCC 13048 by CLSI method; format: functional

SMILES | MIC [1] [µg/mL] | cytotoxicity at 48 h, 25 ug/ml [2] [%] | zone of inhibition at 1000 µg/mL (Staphylococcus aureus [3]) [mm] | zone of inhibition at 1000 µg/mL (Bacillus cereus) [mm] | zone of inhibition at 1000 µg/mL (Bacillus subtilis) [mm] | zone of inhibition at 1000 µg/mL (Klebsiella aerogenes [4]) [mm] | diameter of the inhibition zone (DIZ) (Escherichia coli) | zone of inhibition at 1000 µg/mL (Salmonella typhi [5]) [mm] | zone of inhibition at 1000 µg/mL (Pseudomonas aeruginosa) [mm] | zone of inhibition at 1000 µg/mL (Aspergillus niger) [mm] | zone of inhibition at 1000 µg/mL (Saccharomyces cerevisiae) [mm] | diameter of the inhibition zone (DIZ) (Staphylococcus aureus [3]) | diameter of the inhibition zone (DIZ) (Bacillus cereus) | diameter of the inhibition zone (DIZ) (Bacillus subtilis) | diameter of the inhibition zone (DIZ) (Pseudomonas aeruginosa) | diameter of the inhibition zone (DIZ) (Shigella boydii) | diameter of the inhibition zone (DIZ) [6] | diameter of the inhibition zone (DIZ) (Aspergillus niger) | diameter of the inhibition zone (DIZ) (Klebsiella aerogenes [4]) | diameter of the inhibition zone (DIZ) (Saccharomyces cerevisiae) | other results
Cc1ccccc1-n1cc(COc2ccc([N+](=O)[O-])cc2/C=N/NC(=O)c2ccncc2)nn1 | 1.56 | 24.2 | 13 | 12 | 11 | 10 | inactive | 11 | 10 | 9 | 12 |  |  |  |  |  |  |  |  |  | zone of inhibition at 1000 µg/mL (Shigella boydii; read-out: DIZ): 14 mm; zone of inhibition at 1000 µg/mL ([6]; read-out: DIZ): 12 mm; MIC (Salmonella typhi [7]): 270 µg/mL (≈ 590 µM); MIC (Staphylococcus aureus [8]): 310 µg/mL (≈ 678 µM); MIC (Klebsiella aerogenes [9]): 190 µg/mL (≈ 415 µM)
O=C(N/N=C/c1cc([N+](=O)[O-])ccc1OCc1cn(-c2ccc(Br)cc2)nn1)c1ccncc1 | 12.5 | 19 |  |  |  | 12 | inactive | 10 |  |  | 12 | inactive | inactive | inactive | inactive | inactive | inactive | inactive |  |  | 
Cc1ccc(-n2cc(COc3ccc([N+](=O)[O-])cc3/C=N/NC(=O)c3ccncc3)nn2)c(C)c1 | 3.12 | 17.6 |  |  |  |  | inactive | 11 |  |  |  | inactive | inactive | inactive | inactive | inactive | inactive | inactive | inactive | inactive | 
CCc1ccc(-n2cc(COc3ccc([N+](=O)[O-])cc3/C=N/NC(=O)c3ccncc3)nn2)cc1 | 0.78 | 26.9 |  |  |  |  |  |  | 10 | 10 |  | inactive | inactive | inactive |  | inactive | inactive |  | inactive | inactive | zone of inhibition at 1000 µg/mL (Escherichia coli; read-out: DIZ): 10 mm; diameter of the inhibition zone (DIZ) (Salmonella typhi [5]): inactive
Cc1cccc(-n2cc(COc3ccc([N+](=O)[O-])cc3/C=N/NC(=O)c3ccncc3)nn2)c1 | 12.5 | 23.2 | 13 | 13 | 10 | 8 | inactive | 10 | 12 | 8 |  |  |  |  |  | inactive | inactive |  |  | inactive | 
O=C(N/N=C/c1cc([N+](=O)[O-])ccc1OCc1cn(-c2cccc([N+](=O)[O-])c2)nn1)c1ccncc1 | 0.78 | 22.7 |  |  |  |  | inactive |  |  |  |  | inactive | inactive | inactive | inactive | inactive | inactive | inactive | inactive | inactive | diameter of the inhibition zone (DIZ) (Salmonella typhi [5]): inactive

— ChEMBL document CHEMBL4673231, “Novel isoniazid embedded triazole derivatives: Synthesis, antitubercular and antimicrobial activity evaluation” (Bioorg Med Chem Lett, 2020)
